From EP4640674A1, “CRYSTAL FORMS OF ETHOXIMOD, PREPARATION METHOD THEREFOR AND USE THEREOF” (Jiankuan (Suzhou) Biotechnology Co., Ltd, priority 2022, dated 2024)
Where “and” joins values, the source holds several entries; their conditions need not be identical. Equal values may be shown once. Entries after “also recorded” stand apart in the source; their conditions may differ.

Legend:
Assay type in all cases: physicochemical
[1] = Solid-state stability on storage (crystal form by XRPD, purity); settings: for Crystal Form after storage / main purity after storage / maximum single impurity after storage: 30 days exposed; for main purity / maximum single impurity: before storage
Procedure: Samples were taken before and after storage, and crystal forms were measured through XRPD. […] Table 3 Comparison of solid-state stability of crystal form A and crystal form B

[2] = Equilibrium solubility in organic solvents at room temperature (HPLC; solid by XRPD); settings: equilibrium for 24 h; for solubility at 24 h: organic solvent or mixture, thermodynamic from solid; for solubility: hydrochloride
Procedure: The crystal form A and the crystal form B of ethoximod were prepared into solutions at room temperature with ethanol, acetone and ethyl acetate. After equilibrium for 24 h, filtration was performed to obtain saturated solutions, and contents of the samples in the saturated solutions were measured through high-performance liquid chromatography (HPLC) (diluting the filtrates as needed). Crystal forms of the solids before and after the experiment were characterized through XRPD to check whether phase transition had occurred.

[3] = Dynamic vapor sorption (hygroscopicity); settings: for hygroscopic weight gain (vapor sorption): 25 °C/90% RH; for hygroscopic weight gain (vapor sorption) / hygroscopicity / crystal form after the dynamic vapor sorption test (XRPD): hydrochloride; for hygroscopicity: DVS, 90% RH; for crystal form after the dynamic vapor sorption test (XRPD): after DVS test
Description: In the examples of the present application, the instrument used for the X-ray powder diffraction test is the D2 Phaser produced by Bruker. The instrument used for the differential scanning calorimetry test is the differential scanning calorimeter DSC 250 produced by TA Instruments. The instrument used for the thermogravimetric analysis is the thermogravimetric analyzer TGA 55 produced by TA Instruments. The instrument used for the FT-IR test is the Fourier infrared spectrometer ID1-summit produced by Thermo. The instrument used for the dynamic vapor sorption test is the DVS Intrinsic produced by Surface Measurement Systems (SMS). The instrument used for the microscopy is the microscope NJF-120A produced by Suzhou Nanguang Electronic Technology Co., Ltd.
Samples of the crystal form A and the crystal form B of ethoximod were taken for a dynamic vapor sorption test.

[4] = Mechanical stability: grinding, XRPD before and after; settings: ground with an agate mortar for 5 min; hydrochloride
Procedure: 50 mg crystal form A of ethoximod and 50 mg crystal form B of ethoximod were weighed and ground clockwise with an agate mortar for 5 min, and the samples before and after the grinding were subjected to an XRPD test.

[5] = Angle of repose test (flowability); settings: hydrochloride; for Angle of Repose: single determination
Procedure: Powder properties of active pharmaceutical ingredients affect the flowability of the active pharmaceutical ingredients. The crystal form A and the crystal form B of ethoximod was subjected to angle of repose and Hausner ratio tests to compare the flowability of the crystal form A and the crystal form B of ethoximod. […] In this experiment, angles of repose of active pharmaceutical ingredients of the two crystal forms were measured through an injection method in combination with a residual cone method, and the flowability of the active pharmaceutical ingredients of the two crystal forms was analyzed. Specific operations are as follows: powders were injected into a center of a disc with a limited diameter, the injection was stopped until materials on an oblique side of a powder accumulation layer automatically flew out along an edge of the disc, a height (H) of a cone was measured, and the angle of repose was calculated according to the diameter (D = 2r) of the disc with tanQ = H/r.

[6] = Bulk density and tap density test, Hausner ratio and compressibility; settings: hydrochloride; for Compressibility: (tap density - bulk density)/tap density; for Hausner Ratio: tap density/bulk density
Procedure: In this experiment, the measurement was performed by using a tap instrument according to a fixed volume method. Specific operations are as follows: the weighed powders were loaded into a 50 mL graduated cylinder, and the graduated cylinder was fixed on a support; the tap instrument was set to vibrate 55±5 times per minute for 6-8 min; a change in a volume of the powders in the measuring cup was measured. A ratio of a mass of the powders to a volume (50 mL) of the materials before the tap is the bulk density of the powders, and a ratio of the mass of the powders to a volume of the materials after the tap is the tap density of the powders. Methods for converting Hausner ratio and compressibility are as follows, and the description of Hausner ratio and flowability is shown in Table 8: Table 6 Physical properties of crystal form A and crystal form B

[7] = Adhesion test in ziplock bag; settings: ziplock bag flipped at 5 rpm, 10 min in each direction; hydrochloride
Procedure: Each of the crystal form A and the crystal form B of ethoximod was taken and put into a ziplock bag with a fixed size. A seal was sealed, and the ziplock bag was flipped at a rotation speed of 5 rpm for 10 min. A direction was changed, and the ziplock bag continued to be flipped at a fixed rotation speed for 10 min. Raw materials were poured out from the bag, a mass of the remaining raw materials was weighed accurately, and an adhesion rate was calculated.

[8] = Compressibility: tableting evaluation; settings: punch die with a diameter of 6 mm, hydrochloride; for Experimental Phenomenon: tableting
Procedure: The crystal form A and the crystal form B of ethoximod were taken for preparation tableting evaluation. In this experiment, samples were subjected to tableting under the same pressure by using a punch die with a diameter of 6 mm, radial crushing forces F, diameters D and thicknesses L of the tablets were measured after the elastic recovery of the tablets, and the tensile strength of the tablets was calculated according to the following formula: tensile strength Ts = 2F/ΠDL.

[9] = 40 °C/75% RH, 60 °C and 92.5% RH for 30 days
[10] = light for 30 days, hydrochloride

SMILES	change in main purity [1, 9]	Crystal Form after storage ([1]; At 40 °C/75% RH, hydrochloride)	main purity after storage ([1]; At 40 °C/75% RH, hydrochloride) [A%]	maximum single impurity after storage ([1]; At 40 °C/75% RH, hydrochloride)	Crystal Form after storage ([1]; At 60 °C, hydrochloride)	main purity after storage ([1]; At 60 °C, hydrochloride) [A%]	maximum single impurity after storage ([1]; At 60 °C, hydrochloride)	Crystal Form after storage ([1]; At 92.5% RH, hydrochloride)	main purity after storage ([1]; At 92.5% RH, hydrochloride) [A%]	maximum single impurity after storage ([1]; At 92.5% RH, hydrochloride)	Crystal Form after storage ([1]; In light, hydrochloride)	main purity after storage ([1]; In light, hydrochloride) [A%]	maximum single impurity after storage ([1]; In light, hydrochloride)	main purity ([1]; hydrochloride)	maximum single impurity ([1]; hydrochloride)	change in main purity [1, 10]	solubility ([2]; ethyl acetate) [µg/mL]	hygroscopic weight gain (vapor sorption) [3] [%]	hygroscopicity [3]	crystal form after the dynamic vapor sorption test (XRPD) [3]	other results
CCc1nc(-c2ccc(-c3ccc(CCC(N)(CO)CO)cc3)cc2)co1.Cl [crystal form A, 2-amino-2-{2-(4'-(2-ethyloxazol-4-yl)-[1,1'-biphenyl]-4-yl)ethyl}-1,3-propylene glycol hydrochloride]	no significant change	crystal form A	98.88	0.35 A%	crystal form A	98.82	maximum single impurity: 0.35 A%	crystal form A	98.86	maximum single impurity: 0.35 A%	crystal form A	97.79	maximum single impurity: 0.34 A%	98.84 A%	0.40 A%	slightly decreased	40	0.14	no or almost no hygroscopicity	not subjected to crystal transformation	time the crystal form is stable (XRPD) ([1]; 60 °C, 92.5% RH, light and 45 °C/75% RH): at least 30 days; solubility at 24 h ([2]; acetone): 30 µg/mL; solubility at 24 h ([2]; ethanol): 3470 µg/mL; vapor sorption weight gain ([3]; 24.3 °C and 90% RH): 0.14%; crystal form after grinding (XRPD) [4]: remains unchanged; Average of Angles of Repose [5]: 57.2 °; Angle of Repose [5]: 56.3 ° and 58.0 °; Compressibility [6]: 54.0; Bulk Density [6]: 0.2578 g/mL; Tap Density [6]: 0.5604 g/mL; Hausner Ratio [6]: 2.2; Adhesion Amount Per Unit Area [7]: 0.002 g/m^2; Weight of API Adsorbed in Bag [7]: 0.1053 g; Radial Crushing Force F (Hardness/N) ([8]; tablet): 5 N and 3 N; Experimental Phenomenon [8]: slight sticking
CCc1nc(-c2ccc(-c3ccc(CCC(N)(CO)CO)cc3)cc2)co1.Cl [crystal form B, 2-amino-2-{2-(4'-(2-ethyloxazol-4-yl)-[1,1'-biphenyl]-4-yl)ethyl}-1,3-propylene glycol hydrochloride]	no significant change	crystal form C	98.82	maximum single impurity: 0.34 A%	crystal form B	98.61	maximum single impurity: 0.36 A%	crystal transformed into the crystal form C	98.83	maximum single impurity: 0.36 A%	crystal form B	91.81	maximum single impurity: 1.57 A%	crystal form B main purity: 98.85 A%	maximum single impurity: 0.33 A%	decreased to a certain extent	10	4.6	with hygroscopicity; also recorded: has hygroscopicity	crystal transformed into the crystal form C; also recorded: crystal transformed into a crystal form C	time the crystal form is stable (XRPD) ([1]; 60 °C and light): at least 30 days; crystal form after storage (XRPD) ([1]; placed for 5 days under 92.5% RH and 45 °C/75% RH): crystal transformed into the crystal form C; solubility ([2]; acetone): 20 µg/mL; solid-state crystal form ([2]; ethanol): C, with relatively poor crystallinity; solubility ([2]; ethanol): 5050 µg/mL; crystal form after grinding (XRPD) [4]: partially crystal transformed into a crystal form C; Average of Angles of Repose [5]: 52.3 °; Angle of Repose [5]: 50.2 ° and 54.5 °; Compressibility [6]: 62.0; Bulk Density [6]: 0.0742 g/mL; Tap Density [6]: 0.1953 g/mL; Hausner Ratio [6]: 2.6; Adhesion Amount Per Unit Area [7]: 0.001 g/m^2; Weight of API Adsorbed in Bag [7]: 0.0735 g; Experimental Phenomenon [8]: relatively severe sticking
